Results: patent publication EP2131831B1, “[…] ACIDS AND POLY-L-LYSINE FOR COMBATING […]-ORGANISMS” (priority 2007, dated 2008)

Key:
[1] = system: Escherichia coli ou Staphylococcus aureus; assay: Visual comparison of bactericidal activity, free fatty acids vs conjugates; format: cell-based; parameters: key to Activité bactéricide sur Escherichia coli ou Staphylococcus aureus de l'acide gras seul: 0: pas d'activité, culture négative; +: correspond à 10^3 colonies; ++: correspond à 10^4 colonies; +++: correspond à 10^6 colonies; ++++: correspond à 10^7 colonies; details: visual scale; for Activité bactéricide sur Escherichia coli ou Staphylococcus aureus du conjugué: conjugate of the named fatty acid according to the invention; for Activité bactéricide sur Escherichia coli ou Staphylococcus aureus de l'acide gras seul: free, unbound fatty acid
From the text: Les résultats sont évalués visuellement selon l'échelle suivante : • 0 pas d'activité, culture négative • + correspond à 10^3 colonies • ++ correspond à 10^4 colonies • +++ correspond à 10^6 colonies, et • ++++ correspond à 10^7 colonies.

[2] = system: Alcalescens Diaspar
[3] = system: Nesseria; details: fatty acid on poly-L-Lysine 5×10^-3M, 50µl, 16 h at 37°
[4] = system: Klebsiella oxytoca; details: fatty acid on poly-L-Lysine 5×10^-3M, 50µl, 16 h at 37°
From the text: (§1) Les différents essais ont été réalisés selon le mode opératoire décrit en suivant. Les effets anti-bactéricides et anti-fongiques des solutions testées ont été évalués sur des boîtes contenant des milieux de cultures appropriés à la croissance : • gélose chocolat haemophilus pour la culture de Neisseria, • gélose BCP pour les germes peu exigeants, • gélose Mueller Hinton 2 (MH2-F) pour la majorité des souches bactériennes sauf Neisseria et les streptocoques, • gélose columbia ANC (COL ANC-F) pour les streptocoques, • gélose Sabouraud gentamicine chloramphénicol (SAB GENTA CHL-F) pour les candidas albicans et les levures en général, et • milieu Leowenstein, Coletsos pour Mycobacterium tuberculosis.
(§2) Les boîtes sont recouvertes par 1ml de solution bactérienne ou mycosique à la concentration de 0,5 à 1 de Mac Farland (lecture au densitomètre) soit 1,5×10^8 bactéries/ml.
(§3) La boîte est ensuite séchée 15 minutes à 37°, et on applique 2 gouttes (50µl) de chaque solution à tester.
(§4) La boîte de culture est recouverte après 16 heures d'incubation à 37°.
(§5) Chaque plage de lyse due à l'activité anti-bactérienne ou anti-fongique des conjugués est mesurée. La lecture de l'effet bactéricide ou antifongique est mesurée en cm^2.

[5] = system: Enterobacter Hafniae; details: fatty acid on poly-L-Lysine 5×10^-3M, 50µl, 16 h at 37°
From the text: as §1, §2, §3, §4, §5

[6] = system: Streptocoque B; details: fatty acid on poly-L-Lysine 5×10^-3M, 50µl, 16 h at 37°
From the text: as §1, §2, §3, §4, §5

[7] = system: Morganella Morganii; details: fatty acid on poly-L-Lysine 5×10^-3M, 50µl, 16 h at 37°
From the text: as §1, §2, §3, §4, §5

[8] = system: Proteus Mirabilis; details: fatty acid on poly-L-Lysine 5×10^-3M, 50µl, 16 h at 37°
From the text: as §1, §2, §3, §4, §5

[9] = system: Candida albicans; details: fatty acid on poly-L-Lysine 5×10^-3M, 50µl, 16 h at 37°
From the text: as §1, §2, §3, §4, §5

[10] = system: Streptocoque D; details: fatty acid on poly-L-Lysine 5×10^-3M, 50µl, 16 h at 37°
From the text: as §1, §2, §3, §4, §5

[11] = system: Citrobacter koserii; details: Citro bacter koserii; fatty acid on poly-L-Lysine 5×10^-3M; 50µl; 16 h at 37°
[12] = system: Staphylococcus aureus; assay: Lysis zone on agar plate; format: cell-based; details: fatty acid on poly-L-Lysine 5×10^-3M, 50µl, 16 h at 37°
[13] = system: Escherichia coli; assay: Lysis zone on agar plate; format: cell-based; details: fatty acid on poly-L-Lysine 5×10^-3M, 50µl, 16 h at 37°
[14] = system: souche multirésistante de staphylococcus epidermidis; details: each component's concentration within the combined solution capryl-poly-L-Lysine-lauryl + pyruvate-poly-L-Lysine
[15] = system: Pseudomonas aeruginosa; assay: Lysis zone on agar plate; format: cell-based; details: fatty acid on poly-L-Lysine 5×10^-3M, 50µl, 16 h at 37°

CCCCCCCCCC(=O)O [Acide Caprique]
Activité bactéricide sur Escherichia coli ou Staphylococcus aureus du conjugué [1]: +++ (correspond à 10^6 colonies)
Activité bactéricide sur Escherichia coli ou Staphylococcus aureus de l'acide gras seul [1]: ++++ (correspond à 10^7 colonies)

CCCCCC(=O)O [Acide Caproïque]
Activité bactéricide sur Escherichia coli ou Staphylococcus aureus du conjugué [1]: +++ (correspond à 10^6 colonies)
Activité bactéricide sur Escherichia coli ou Staphylococcus aureus de l'acide gras seul [1]: ++ (correspond à 10^4 colonies)

CCCCCCCCCCCC(=O)O [Acide Laurique]
Activité bactéricide sur Escherichia coli ou Staphylococcus aureus du conjugué [1]: ++ (correspond à 10^4 colonies)
Activité bactéricide sur Escherichia coli ou Staphylococcus aureus de l'acide gras seul [1]: ++++ (correspond à 10^7 colonies)

CCCCCCCCCCCCCC(=O)O [Acide Myristique]
Activité bactéricide sur Escherichia coli ou Staphylococcus aureus du conjugué [1]: + (correspond à 10^3 colonies)
Activité bactéricide sur Escherichia coli ou Staphylococcus aureus de l'acide gras seul [1]: + (correspond à 10^3 colonies)

CCCCCCCC/C=C\CCCCCCCC(=O)O [Acide Oléique]
Activité bactéricide sur Escherichia coli ou Staphylococcus aureus du conjugué [1]: + (correspond à 10^3 colonies)
Activité bactéricide sur Escherichia coli ou Staphylococcus aureus de l'acide gras seul [1]: + (correspond à 10^3 colonies)

CCCCCCCCCCCCCCCC(=O)O [Acide Palmitique]
Activité bactéricide sur Escherichia coli ou Staphylococcus aureus du conjugué [1]: + (correspond à 10^3 colonies)
Activité bactéricide sur Escherichia coli ou Staphylococcus aureus de l'acide gras seul [1]: 0

CC(=O)O [C2 = acetate]
Activité bactéricide sur Escherichia coli ou Staphylococcus aureus du conjugué [1]: +++ (correspond à 10^6 colonies)
Activité bactéricide sur Escherichia coli ou Staphylococcus aureus de l'acide gras seul [1]: 0

CCCCC(=O)O [C5 = acide valérique, acide valérique]
Activité bactéricide sur Escherichia coli ou Staphylococcus aureus du conjugué [1]: +++ (correspond à 10^6 colonies)
Activité bactéricide sur Escherichia coli ou Staphylococcus aureus de l'acide gras seul [1]: 0

Acide Caprylique
Activité bactéricide sur Escherichia coli ou Staphylococcus aureus du conjugué [1]: +++ (correspond à 10^6 colonies)
Activité bactéricide sur Escherichia coli ou Staphylococcus aureus de l'acide gras seul [1]: +++ (correspond à 10^6 colonies)

Acide Palmitoléique
Activité bactéricide sur Escherichia coli ou Staphylococcus aureus du conjugué [1]: +++ (correspond à 10^6 colonies)
Activité bactéricide sur Escherichia coli ou Staphylococcus aureus de l'acide gras seul [1]: ++ (correspond à 10^4 colonies)

Farnesyl-cystéine
Activité bactéricide sur Escherichia coli ou Staphylococcus aureus du conjugué [1]: ++ (correspond à 10^4 colonies)
Activité bactéricide sur Escherichia coli ou Staphylococcus aureus de l'acide gras seul [1]: 0

acétyl-poly-L-Lysine [Acétyl- poly-L-Lysine]
plage de lyse [2]: 1,4cm^2
plage de lyse [3]: 2,27cm^2
plage de lyse [4]: 3,14 cm^2
plage de lyse [5]: 2,71 cm^2
plage de lyse [6]: 3,14 cm^2 colonies
plage de lyse [7]: 0 cm^2
plage de lyse [8]: 0 cm^2
plage de lyse [9]: 1,97cm^2
plage de lyse [10]: 4,15cm^2
plage de lyse [11]: 1,77 cm^z cm^2
plage de lyse [12]: 1,68 cm^2
plage de lyse [13]: 0 cm^2

butyrate [C4 = butyrate]
Activité bactéricide sur Escherichia coli ou Staphylococcus aureus du conjugué [1]: +++ (correspond à 10^6 colonies)
Activité bactéricide sur Escherichia coli ou Staphylococcus aureus de l'acide gras seul [1]: 0

butyryl-poly-L-Lysine [Butyryl- poly-L-Lysine]
plage de lyse [2]: 0,85 cm^2
plage de lyse [3]: 0,78 cm^2
plage de lyse [4]: 0 cm^2
plage de lyse [5]: 2,03 cm^2
plage de lyse [6]: 1,33 cm^2 qqls colonies
plage de lyse [7]: 0 cm^2
plage de lyse [8]: 0 cm^2
plage de lyse [9]: 2,3 cm^2
plage de lyse [10]: 0 cm^2
plage de lyse [11]: 1,77 cm^2
plage de lyse [12]: 1,82 cm^2
plage de lyse [13]: 2,65 cm^2

capryl-poly-L-Lysine-lauryl [capryl-poly-Lysine-lauryl]
concentration minimale inhibitrice [14]: < 1,25×10^5 M

lactyl-Poly-L-Lysine
plage de lyse [2]: 1,53cm^2
plage de lyse [3]: 1,65cm^2
plage de lyse [4]: 0 cm^2
plage de lyse [5]: 1,44cm^2
plage de lyse [6]: peu sensible
plage de lyse [7]: 0 cm^2
plage de lyse [8]: 0 cm^2
plage de lyse [9]: 1,05cm^2
plage de lyse [10]: 2,01 cm^2
plage de lyse [15]: 2,34 cm^2
plage de lyse [11]: 1,13 cm^2
plage de lyse [12]: 1,82 cm^2
plage de lyse [13]: 1,92 cm^2

propionate [C3 = propionate]
Activité bactéricide sur Escherichia coli ou Staphylococcus aureus du conjugué [1]: +++ (correspond à 10^6 colonies)
Activité bactéricide sur Escherichia coli ou Staphylococcus aureus de l'acide gras seul [1]: 0

propionyl-poly-L-Lysine [Propionylpoy-L-lysine]
plage de lyse [2]: 1,13cm^2 inhibition partielle
plage de lyse [3]: 1,13 cm^2
plage de lyse [4]: 0 cm^2
plage de lyse [5]: 1,12 cm^2
plage de lyse [6]: 0 cm^2
plage de lyse [7]: 0 cm^2
plage de lyse [8]: 0 cm^2
plage de lyse [9]: 2,13cm^2
plage de lyse [10]: 0 cm^2
plage de lyse [15]: 0 cm^2
plage de lyse [11]: 0 cm^2
plage de lyse [12]: 2,3 cm^2

pyruvyl-poly-L-Lysine
plage de lyse [2]: 1,53cm^2
plage de lyse [3]: 2,01cm^2
concentration minimale inhibitrice [14]: < 1,25×10^4 M
plage de lyse [4]: 1,33 cm^2
plage de lyse [5]: 2,27 cm^2
plage de lyse [6]: 1,77cm^2 qqls colonies
plage de lyse [7]: 0 cm^2
plage de lyse [8]: 0 cm^2
plage de lyse [9]: 2,46 cm^2
plage de lyse [10]: 2,27 cm^2
plage de lyse [15]: 1,32 cm^2
plage de lyse [11]: 1,54 cm^2
plage de lyse [12]: 2,13 cm^2
plage de lyse [13]: 2,09 cm^2
